# From US6723716B1, “7-acylamino-3-heteroarylthio-3-cephem carboxylic acid antibiotics and prodrugs thereof” (Essential Therapeutics, Inc., priority 1999, dated 2004)
# Key:
# [1] = test system: S. aureus PC1 (Meth^S)(lac^+); assay: Broth microdilution MIC (NCCLS); assay type: cell-based; settings: Staphylococcus aureus
# Method in brief: (§1)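 Following NCCLS guidance, compounds were titrated 2-fold in Mueller-Hinton broth against 5×10^5 CFU/mL inocula. After 24 h at 35° C, growth was judged by absorbance at 650 nm and by eye. The MIC was taken as the lowest concentration that stopped growth.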
# S. aureus ATCC 29213 = assay: Broth microdilution MIC (NCCLS); assay type: cell-based; settings: Staphylococcus aureus, ATCC29213; S. aureus ATCC 29213; Mueller-Hinton broth, 24 h at 35° C.; read-out: MIC
# Method in brief: as §1
# [2] = test system: S. aureus Spain #356 (Meth^R); assay: Broth microdilution MIC (NCCLS); assay type: cell-based; settings: Staphylococcus aureus, 24 h
# Method in brief: as §1
# human serum proteins = assay: Serum binding determination by ultrafiltration/HPLC; assay type: in vitro ADME; settings: by HPLC
# Protocol: The more accurate measurement of binding of selected cephalosporin compounds was performed using HPLC as described below.
# 1. Serum is placed in a shaking water bath preheated to 37±2° C. for 5 to 10 minutes to heat serum to 37° C. Serum pH is measured and recorded, while serum is 37° C. using pH paper. Measurements are taken twice, 3 minutes apart. If the pH is not 7.4±0.4 then the pH is adjusted by blowing 5% CO2/95% O2 over the serum. After blowing for several minutes, serum is heated to 37° C. and measurements are taken twice, 3 minutes apart using pH paper to determine the pH. Store at 4° C. The serum is stable for 7 days. Always check the pH before each use.
# 2. Before any centrifugation, the centrifuge temperature must be adjusted to 25±2° C. Preheat the centrifuge by spinning for 45 minutes at the same speed to be used in the assay (1900 g) with two tubes of water in the rotor and the temperature set to 25° C. When the centrifuge stops immediately check the temperature of the tubes of water with a calibrated thermometer. The temperature of the tubes of water must be 25±2° C. […] Continue spinning and measuring the temperature and adjusting the setting until the temperature is 25±2° C.
# 3. Prepare blank ultrafiltrate by pipetting blank pH 7.4 serum into an Amicon Centrifree Micropartition devices, centrifuge: fixed angle rotor, 1900 g, 25° C. for 20 minutes. Heat ultrafiltrate in a shaking water bath preheated to 37° C. Measure ultrafiltrate pH and adjust to the pH of the serum (7.4±0.2).
# 4. Pipette 190 ul of blank ultrafiltrate into a set of labeled 1.7 mL polypropylene microfuge tubes for 3 of each level. Pipette 10 μL of the appropriate standard stock 50, 200, 1000 μg/mL to make standards 2.5, 10, and 50 μg/mL respectively. Vortex each tube well. One set of the standard samples are mixed 1:1 with 0.2 M acetic acid and injected onto the HPLC (MSTD). These samples are the membrane standards and will be used to compare to the other standards. Pipette 190 ul of ultrafiltrate and spike with 10 ul of whatever solution (e.g. water) the standards are prepared in to make the zero standard.
# 5. Pipette 475 μL of blank heated pH 7.4 serum into a set of labeled 1.7 mL polypropylene microfuge tubes for 2 of each (Serum A and Serum B). Pipette 25 μL of the 1000 μg/mL standard stock into each tube, vortex each tube well to make serum standard 50 μg/mL. Remove 100 μL of serum and deproteinate with 200 μL 4% TCA while vortexing to make serum time 0 (serum 50, T0). Place serum tubes in a shaking water bath at 37° C. for 10 minutes. Pipet 100 μL of serum out and deproteinate with 200 μL 4% TCA, to make serum time 10 min (serum 50, T10). Pipet 200 ul serum standard 50 μg/mL into an ultrafiltration device, which is not treated with TCA, to determine free drug in samples (Rat Serum 50).
# 6. Transfer serum and standard samples to labeled Amicon Centrifree Micropartition filters, and centrifuge: 1900 g, 25° C. for 10 minutes. The extracted serum samples (T0 and T10) are spun down and supernatant is loaded into HPLC vials.
# 7. 100 μL of ultrafiltrate sample and 100 μL of 0.2 M acetic acid were mixed together to stabilize the compound in ultrafiltrate.
# 8. Transfer entire stabilized ultrafiltrate solution to a labeled autoinjector HPLC vial cap with Teflon septa, and inject on HPLC.
# Peak height or area is used in a weighted linear regression.
# [3] = In vitro stability of compounds in rat serum; assay type: in vitro ADME; settings: for stability of compounds in rat serum: Table 2 data; for Stability in rat serum (% loss): after 60 min exposure to rat serum, 37° C., HPLC
# Protocol: In general, compounds from the class of 7-acylamino-3-heteroarylthio-3-cephem carboxylic acids have higher chemical reactivity and lower stability towards chemical or enzymatic decomposition than most typical cephalosporins. […] Results shown in Table 2 represent percentage loss of the initial amount of cephalosporin compound upon 60 min incubation in rat serum.
# Procedure for measuring degree of degradation of cephalosporin compounds in rat serum was as follows:
# Fresh control rat serum (heparinized and stored frozen) is preincubated at 37° C. for 15 min in a shaking water bath. pH is measured using test strips. 25 μL of a 2 mg/mL solution cephalosporin compound (in water) of is then added to each matrix to make 1000 μL. Solutions were incubated at 37° C. 100 ul of solution was taken out at time=0, 15, 30, and 60 min post dose and added 200 μL 4% trichloroacetic acid, vortexed, and centrifuged for 10 min at 14,000 rpm in an Eppendorf microcentrifuge. 25 μL of each supernatant was injected onto HPLC. Experiment was repeated using 25 μL of a 0.2 mg/mL cephalosporin compound. Degradation is measured as the percentage of HPLC peak area at time t relative to peak area at time 0.
# HPLC conditions: Beckman Ultrasphere C18 column. 5 u. 4.6 mm×25 cm. 1 mL/min of 95% 0.1 M ammonium acetate, pH 6, 5% ACN going to 75% buffer/organic over 20 min. UV monitored at 254 and 280 nm.
Structure (SMILES),MIC [1],MIC (S. aureus ATCC 29213),MIC [2],Serum Binding human (% of compound bound to serum) (human serum proteins),stability of compounds in rat serum [3],Stability in rat serum (% loss) [3]
"NCCSCc1nc(N)sc1SC1=C(C(=O)O)N2C(=O)[C@@H](NC(=O)/C(=N\O)c3nc(N)sc3Cl)[C@H]2SC1 [Cmpd 3, (7R)-7-[(Z)-2-(2-amino-5-chlorothiazol-4-yl)-2-(hydroxyimino)acetamido]-3-[4-(2-aminoethylthiomethyl)-2-amino-1,3-thiazol-5-ylthio]-3-cephem-4-carboxylic acid]",0.25 µg/mL,0.25 µg/mL,1 µg/mL,88%,improved stability,3%
"NCCSCc1nc(SCCN)sc1SC1=C(C(=O)O)N2C(=O)[C@@H](NC(=O)/C(=N\O)c3nc(N)sc3Cl)[C@H]2SC1 [Cmpd 11, (7R)-7-[(Z)-2-(2-amino-5-chlorothiazol-4-yl)-2-(hydroxyimino)acetamido]-3-[4-(2-aminoethylthiomethyl)-2-aminoethylthio-1,3-thiazol-5-ylthio]-3-cephem-4-carboxylic acid]",0.13 µg/mL,0.06 µg/mL,0.5 µg/mL,83%,,47%
"NCCSCc1ncccc1SC1=C(C(=O)O)N2C(=O)[C@@H](NC(=O)/C(=N\O)c3nc(N)sc3Cl)[C@H]2SC1 [Cmpd 13, (7R)-7-[(Z)-2-(2-amino-5-chlorothiazol-4-yl)-2-(hydroxyimino)acetamido]-3-[2-(2-aminoethylthiomethyl)pyrid-3-ylthio]-3-cephem-4-carboxylic acid]",0.25 µg/mL,0.25 µg/mL,,90%,improved stability,9%
"N=C(N)NCCSCc1ncccc1SC1=C(C(=O)O)N2C(=O)[C@@H](NC(=O)/C(=N\O)c3nsc(N)n3)[C@H]2SC1 [Cmpd 14, (7R)-7-[(Z)-2-(5-amino-1,2,4-thiadiazol-3-yl)-2-(hydroxyimino)acetamido]-3-[2-(2-guanidinoethylthiomethyl)pyrid-3-ylthio]-3-cephem-4-carboxylic acid]",,,,60%,improved stability,10%
"NCCSCc1ncccc1SC1=C(C(=O)O)N2C(=O)[C@@H](NC(=O)/C(=N\O)c3nsc(N)n3)[C@H]2SC1 [Cmpd 17, (7R)-7-[(Z)-2-(5-amino-1,2,4-thiadiazol-3-yl)-2-(hydroxyimino)acetamido]-3-[2-(2-aminoethylthiomethyl)pyrid-3-ylthio]-3-cephem-4-carboxylic acid]",0.25 µg/mL,0.25 µg/mL,,66%,improved stability,2%
"NCCSCc1cnccc1SC1=C(C(=O)O)N2C(=O)[C@@H](NC(=O)/C(=N\O)c3nsc(N)n3)[C@H]2SC1 [Cmpd 18, (7R)-7-[(Z)-2-(5-amino-1,2,4-thiadiazol-3-yl)-2-(hydroxyimino)acetamido]-3-[3-(2-aminoethylthiomethyl)pyrid-4-ylthio]-3-cephem-4-carboxylic acid]",0.13 µg/mL,0.13 µg/mL,1 µg/mL,66%,,23%
NCCSCc1cnccc1SC1=C(C(=O)O)N2C(=O)C(NC(=O)/C(=N\O)c3csc(N)n3)C2SC1 (stereo not drawn) [Cmpd 19],0.5 µg/mL,0.5 µg/mL,2 µg/mL,68%,,26%
"NCCSCc1cnccc1SC1=C(C(=O)O)N2C(=O)[C@@H](NC(=O)/C(=N\O)c3nc(N)sc3Cl)[C@H]2SC1 [Cmpd 20, (7R)-7-[(Z)-2-(2-amino-5-chlorothiazol-4-yl)-2-(hydroxyimino)acetamido]-3-[3-(2-aminoethylthiomethyl)pyrid-4-ylthio]-3-cephem-4-carboxylic acid]",0.25 µg/mL,0.25 µg/mL,1 µg/mL,84%,,70%
"NCCSCc1ccncc1SC1=C(C(=O)O)N2C(=O)[C@@H](NC(=O)/C(=N\O)c3nc(N)sc3Cl)[C@H]2SC1 [Cmpd 21, (7R)-7-[(Z)-2-(2-amino-5-chlorothiazol-4-yl)-2-(hydroxyimino)acetamido]-3-[4-(2-aminoethylthiomethyl)pyrid-3-ylthio]-3-cephem-4-carboxylic acid]",0.25 µg/mL,,,90%,improved stability,3%
"NCCSCc1ncsc1SC1=C(C(=O)O)N2C(=O)[C@@H](NC(=O)/C(=N\O)c3cccc(N)n3)[C@H]2SC1 [Cmpd 23, (7R)-7-[(Z)-2-(2-aminopyrid-6-yl)-2-(hydroxyimino)acetamido]-3-[4-(2-aminoethylthiomethyl)-1,3-thiazol-5-ylthio]-3-cephem-4-carboxylic acid]",0.13 µg/mL,0.13 µg/mL,2 µg/mL,94%,improved stability,19%
"NCCSCc1cnccc1SC1=C(C(=O)O)N2C(=O)[C@@H](NC(=O)/C(=N\O)c3cccc(N)n3)[C@H]2SC1 [Cmpd 24, (7R)-7-[(Z)-2-(2-aminopyrid-6-yl)-2-(hydroxyimino)acetamido]-3-[3-(2-aminoethylthiomethyl)pyrid-4-ylthio]-3-cephem-4-carboxylic acid]",0.25 µg/mL,0.25 µg/mL,2 µg/mL,88%,,66%
"N=C(N)NCCSCc1cnccc1SC1=C(C(=O)O)N2C(=O)[C@@H](NC(=O)/C(=N\O)c3nsc(N)n3)[C@H]2SC1 [Cmpd 25, (7R)-7-[(Z)-2-(5-amino-1,2,4-thiadiazol-3-yl)-2-(hydroxyimino)acetamido]-3-[3-(2-guanidinoethylthiomethyl)pyrid-4-ylthio]-3-cephem-4-carboxylic acid]",0.13 µg/mL,0.25 µg/mL,1 µg/mL,47%,improved stability,45%
